Assay results as given in US7642066B2, “High throughput pharmaceutical screening using drosophila” (Washington University, priority 2004, dated 2010).
Entries after “also recorded” stand apart in the source; their conditions may differ. Blank lines part the entries; values can stand above or below the compound they belong to.

Columns and labels:
wild-type Drosophila [1] = tested on: wild-type Drosophila; design: species or system Drosophila melanogaster; conditions: in vivo
Protocol: (§1) Into each well is pipetted 50-400 μl of either standard (control) or high glucose (experimental) Drosophila growth medium. A range of 50-400 μl is a balance between (1) providing sufficient food so as not to place undue feeding stress on the developing flies and (2) providing sufficient air space for the third larval instars to find sufficient wall space to pupate. Any one of several standard Drosophila growth medium recipes as known in the art of breeding Drosophila for research can be used. A known recipe for a standard growth medium includes, for example, water: 1 liter, cornmeal: 61 grams, yeast: 32 grams, agar: 9.3 grams, glucose: 129 grams (or molasses: 67 grams), methyl p-hydrobenzoate: 2.7 grams, and propionic acid: 0.05 liters. A high glucose growth medium is, for example, such a standard Drosophila growth medium supplemented with an additional 1 mole glucose. For example, to prepare a high glucose growth medium, an additional 180 grams of glucose is added to the recipe for standard growth medium as just described. Another embodiment, for example, of a standard growth medium is that prepared as follows: 1 gram agar, 8 grams brewers yeast, 2 grams yeast extract, 2 grams peptone, 3 grams sucrose, 6 grams glucose, 0.05 grams MgSO4×6H20, 0.05 grams CaCl2×2H20, 600 microliters propionic acid, 1 milliliter 10% p-Hydroxy-benzoic acid methyl ester in 95% ethanol, brought to 100 milliliters with water. A high glucose version of this medium is made, for example, by combining 75 milliliters of this medium with 25 milliliters of a 4 molar glucose solution in water.
Alternatively, the experimental growth medium is any growth medium containing an excess amount of a sugar or sugars selected from hexose sugars such as fructose, sorbitol, galactose and glucosamine, and from complex sugars such as sucrose, lactose or maltose.
The addition of 1 molar (1 M) glucose to the Drosophila growth media delayed pupariation, which reached significant levels at day 10 and high levels at day 11.
The developmental arrest can be screened as described in the Examples, infra. Glucose, for example, induces readily observable delays in pupariation as determined by the timing of significant eclosion, and peak eclosion. For example, control Drosophila embryos show significant eclosion beginning at day 8, while Drosophila embryos exposed to high glucose growth medium show significant eclosion beginning at day 11 (1 molar glucose). Similarly, peak eclosion is delayed, for example, from day 10 in controls, to day 12 (1 molar glucose). Thus, candidate compounds are screened by observing changes to the delay in significant eclosion and peak eclosion, as compared to the developmental delay induced by high glucose.
Accordingly, the ability of the hexose sugars fructose, sorbitol, galactose and glucosamine was tested by adding amounts of each sugar to the standard Drosophila growth medium. Fructose and sorbitol induced a 48-hour developmental delay at concentrations similar to those at which glucose induced developmental delay (data not shown).

wild-type Drosophila [2] = assay: Drosophila high throughput screen: effect of compound on glucose-mediated delay in pupariation; type: in vivo, Drosophila melanogaster; conditions: for significant levels of pupariation / high levels of pupariation: 1 M glucose, FIG. 2; for effect on glucose-mediated developmental delay / delay in pupariation: high glucose (1 M glucose in growth media)
Protocol: Accordingly, methods and related articles of composition for high throughput screening assays involve the preparation of microtiter plates each with multiple wells, wherein each well initially contains one or more wild type Drosophila embryos and an amount of a high glucose Drosophila growth medium. The embryos develop while feeding on the high glucose growth medium. The precise age of the embryos at the time they are plated matters less than the fact that they are all about the same age, to permit accurate evaluation of the possible effects of the candidate compound on larval development.
To prepare the microtiter plates, for example, 96-well microtiter plates are used, such as those commonly commercially available and typically used for various laboratory assay techniques, including other high throughput drug assay techniques. A suitable example is a Falcon #3912 flexible 96-well plate. However, other multiple-well microtiter plates can be used.
as §1
A candidate compound, or cocktail of more than one compound, that has been selected for screening is dissolved in EtOH or prepared in DMSO/Aqueous solution. In an exemplary embodiment, EtOH is used. Although DMSO can be used, it can be toxic if it reaches final concentrations of more than 0.3% of the growth medium. The compound in solution is added and allowed to diffuse through the growth medium for an initial period of about 16-24 hours. Wild type Drosophila embryos are collected en masse and, after the initial period of diffusion of the candidate compound through the growth medium, sorted several to a well. In an exemplary embodiment, five to twenty embryos are sorted to each well. However, the number of embryos in each well can easily vary, provided that no more embryos than will flourish in the well are used. The number of embryos per well will also be influenced by the need to obtain a sufficient number of data points to make the test meaningful.
Once the Drosophila embryos are placed into each well on the growth medium, they hatch out and begin feeding after a second period of about 24 hours, bringing the final amount of diffusion time for the subject compound to about 40-48 hours. A period of about 24-48 hours is sufficient for full diffusion of most compounds. […] Finally, each well is sealed with a sealing film such as “Aeraseal Sealing Film” (available from Sigma-Aldrich, St. Louis, Mo.; Sigma #A-9224). […]

[3] = 0.375 mg/ml of food, 1 molar glucose, FIG. 3
[4] = 0.75 mg/ml of food, 1 molar glucose, FIG. 3

Structure (SMILES): O=C(CO)[C@@H](O)[C@H](O)[C@H](O)CO [fructose]
developmental delay induced (wild-type Drosophila [1]; Drosophila melanogaster): 48 h

Structure (SMILES): O=C[C@H](O)[C@@H](O)[C@@H](O)[C@H](O)CO [galactose]
concentration at which toxicity is demonstrated (wild-type Drosophila [1]; Drosophila melanogaster): 0.3 M

Structure (SMILES): COc1ccc(Cl)cc1C(=O)NCCc1ccc(S(=O)(=O)NC(=O)NC2CCCCC2)cc1 [glyburide]
significant levels of pupariation (wild-type Drosophila [2]; 0.25 mg per ml of growth media, no-drug 1 M glucose control approximately day 12): 8 days | high levels of pupariation (wild-type Drosophila [2]; 0.25 mg per ml of growth media, no-drug 1 M glucose control day 13-14): ≤ 10 days | high levels of pupariation (wild-type Drosophila [2]; 1 mg per ml of growth media): 11 days | significant levels of pupariation (wild-type Drosophila [2]; 1 mg per ml of growth media): 11 days | effect on glucose-mediated developmental delay / delay in pupariation (wild-type Drosophila [2]): demonstrated an ability to ameliorate glucose-mediated developmental delay; also recorded: reduced glucose-mediated delay in pupariation

Structure (SMILES): CC(C)[C@H]1CC[C@H](C(=O)N[C@H](Cc2ccccc2)C(=O)O)CC1 [nateglinide]
effect on rate of development (wild-type Drosophila [2]; [3]): partially restored the rate of development | pupariation high rates beginning (wild-type Drosophila [2]; [3]): 9 days | effect on rate of development (wild-type Drosophila [2]; [4]): intermediate result | pupariation high levels beginning (wild-type Drosophila [2]; [4]): 9 days | effect on glucose-mediated developmental delay / delay in pupariation (wild-type Drosophila [2]): demonstrated an ability to ameliorate glucose-mediated developmental delay

Further lines, with some results ahead:

concentration inducing a developmental delay (as low as) (wild-type Drosophila [1]; Drosophila melanogaster): 3000 µM | larval emergence (wild-type Drosophila [1]): most larvae failed to emerge
Structure (SMILES): N[C@H]1C(O)O[C@H](CO)[C@@H](O)[C@@H]1O (stereo partly shown) [glucosamine]
developmental delay with progressively higher levels (wild-type Drosophila [1]): progressively longer developmental delays

developmental delay induced (wild-type Drosophila [1]; Drosophila melanogaster): 48 h
Structure (SMILES): OC[C@@H](O)[C@@H](O)[C@H](O)[C@@H](O)CO [sorbitol]
